Laboratory results taken from patent EP4512427A1, “ANTIBODY-DRUG CONJUGATES BASED ON MOLECULAR GLUE DEGRADERS AND USES THEREOF” (Mablink Bioscience, priority 2023, dated 2025).

What was measured:
Assay in all cases: In vitro cytotoxicity assay (MTT)
HT-29 = format: cell-based; details: Homo sapiens, 144 h, 6 days incubation
Protocol: (§1) In vitro cytotoxicity of compounds of the disclosure was assessed on several cancerous human cell lines. Cells were plated in 96-well plates at an appropriate density depending on the cell line (between 1000 and 10 000 cells/well in 100µL of appropriate culture media) and incubated at 37°C for 24 hours. Serial dilutions of the tested compound previously dissolved in culture media (50µL) were added, and incubation was carried at 37°C out for 6 days. MTT (5mg/mL in PBS, 20µL, Sigma-Aldrich) was added into the wells, and incubation was continued for 1 to 4 hours at 37°C. Culture media was then carefully removed, and well content was homogeneously dissolved with acidified isopropanol. Absorbance values were measured on a microplate reader using a wavelength of 570 nm (with a reference wavelength of 690 nm). The IC50 concentration values compared to untreated control cells were determined using inhibition dose response curve fitting (GraphPad Prism 9). Exatecan mesylate (cat#HY-13631A) and CR8 (CAS# 294646-77-8; cat#HY-18340) were purchased from MedChemExpress (China).

BXPC3 = format: cell-based; details: Homo sapiens, BXPC-3, 144 h, 6 days incubation
Protocol: as §1

MCF-7 = format: cell-based; details: Homo sapiens, MCF7, 144 h, 6 days incubation
Protocol: as §1

SKBR-3 = format: cell-based, human; details: 6 days incubation
Protocol: as §1

NCI-N87 = format: cell-based, human; details: 6 days incubation
Protocol: as §1

MDA-MB-453 = format: cell-based, human; details: 6 days incubation
Protocol: as §1

BT-474 = format: cell-based, human; details: BT-474, 6 days incubation, MTT
Protocol: as §1

MDA-MB-231 = format: cell-based, human; details: 6 days incubation
Protocol: as §1

JIMT-1 = format: cell-based, human; details: 6 days incubation
Protocol: as §1

[1] = Homo sapiens, MDA-MB-453, 144 h
[2] = Homo sapiens, MDA-MB-231, 144 h

| SMILES | IC50 (HT-29) [nM] | IC50 (BXPC3) [nM] | IC50 (MCF-7) [nM] | IC50 (SKBR-3; Homo sapiens, SK-BR-3, 144 h) [nM] | IC50 (NCI-N87; Homo sapiens, NCI-N87, 144 h) [nM] | IC50 (MDA-MB-453; [1]) [nM] | IC50 (BT-474; Homo sapiens, BT-474, 144 h) [nM] | IC50 (MDA-MB-231; [2]) [nM] | IC50 (JIMT-1; Homo sapiens, 144 h) [nM] | IC50 (SKBR-3) [nM] | IC50 (NCI-N87) [nM] | IC50 (MDA-MB-453) [nM] | IC50 (BT-474) [nM] | IC50 (MDA-MB-231) [nM] | IC50 (JIMT-1) [nM] |
| --- | --- | --- | --- | --- | --- | --- | --- | --- | --- | --- | --- | --- | --- | --- | --- |
| Brc1cnn2c(NCc3ccc(-c4ccccn4)cc3)nc(N3CCNCC3)nc12 [Compound 2601] | 0.13 | 1.72 | 15.4 | 3.61 | 2.7 | 1.92 | 1.86 | 0.86 | 0.45 |  |  |  |  |  |  |
| NCCNc1nc(NCc2ccc(-c3ccccn3)cc2)n2ncc(Br)c2n1 [Compound 2638] |  |  |  | 0.82 | 0.42 | 0.88 | 0.78 | 0.3 |  |  |  |  |  |  |  |
| N[C@H]1CC[C@H](Nc2nc(NCc3ccc(-c4ccccn4)cc3)n3ncc(Br)c3n2)C1 [Compound 2669] |  |  |  | 0.67 | 0.39 | 0.59 | 1.75 | 0.44 |  |  |  |  |  |  |  |
| NC1CCN(c2nc(NCc3ccc(-c4ccccn4)cc3)n3ncc(Br)c3n2)CC1 [Compound 2559] | 0.21 | 1.63 | 12.8 | 3.73 | 1.32 | 1.52 | 2.63 | 1.35 | 0.41 |  |  |  |  |  |  |
| Brc1cnn2c(NCc3ccc(-c4ccccn4)cc3)nc(NCC3CCNCC3)nc12 [Compound 2569] |  |  |  | 62.6 | 19.7 | 12.8 | 15.2 | 11.2 | 6.7 |  |  |  |  |  |  |
| O[C@H]1CN[C@H](CNc2nc(NCc3ccc(-c4ccccn4)cc3)n3ncc(Br)c3n2)C1 [Compound 2538] |  |  |  | 39.1 | 21.6 | 8.12 | 6.54 | 8.75 | 5.13 |  |  |  |  |  |  |
| N[C@H]1CC[C@H](Nc2nc(Nc3ccc(CN4CCOCC4)cc3)n3ncc(Br)c3n2)CC1 [Compound 2533] |  |  |  | > 100 | > 100 | > 100 | > 100 | > 100 | > 100 |  |  |  |  |  |  |
| Brc1cnn2c(Nc3ccc(CN4CCOCC4)cc3)nc(NC3CCNCC3)nc12 [Compound 2554] |  |  |  |  |  |  |  |  |  | > 100 | > 100 | > 100 | > 100 | > 100 | > 100 |
| Brc1cnn2c(NCc3ccc(-c4ccccn4)cc3)nc(N[C@@H]3CCCNC3)nc12 [Compound 2659, 8-bromo-N2-[(3R)-piperidin-3-yl]-N4-{[4-(pyridin-2-yl)phenyl]methyl}pyrazolo[1 ,5-a][1 ,3,5]triazine-2,4-diamine] |  |  |  |  | 0.34 | 0.4 | 0.72 | 0.26 |  | 0.72 |  |  |  |  |  |
| NCCCNc1nc(NCc2ccc(-c3ccccn3)cc2)n2ncc(Br)c2n1 [Compound 2658] |  |  |  | 0.77 | 6.43 | 7.84 | 4.57 | 1.98 |  |  |  |  |  |  |  |
| N[C@H]1CCCC[C@H]1Nc1nc(NCc2ccc(-c3ccccn3)cc2)n2ncc(Br)c2n1 [Compound 2672] |  |  |  | 0.24 | 0.55 | 0.76 | 2.12 | 0.46 |  |  |  |  |  |  |  |
| N[C@H]1CC[C@H](Nc2nc(NCc3ccc(-c4ccccn4)cc3)n3ncc(I)c3n2)CC1 [Compound 2590] |  |  |  | 2.55 | 2.42 | 1.76 | 1.33 | 0.74 | 0.29 |  |  |  |  |  |  |
| Brc1cnn2c(NCc3ccc(-c4ccccn4)cc3)nc(N3CCC(N4CCNCC4)CC3)nc12 [Compound 2622] | 8.25 | 36.1 | > 100 | 2.24 | 3 | 21.1 | 13.5 | 12.7 | 4.84 |  |  |  |  |  |  |
| N[C@H]1CC[C@H](CNc2nc(NCc3ccc(-c4ccccn4)cc3)n3ncc(Br)c3n2)CC1 [Compound 2635] | 8.93 | 39.7 | > 100 | 0.83 | 15.9 | 17.9 | 23.1 | 12.9 | 3.52 |  |  |  |  |  |  |
| Nc1ccc(Nc2nc(NCc3ccc(-c4ccccn4)cc3)n3ncc(Br)c3n2)cc1 [Compound 2584] |  |  |  | 25.9 | 9.44 | 12.3 | 9.72 | 7.17 | 7.61 |  |  |  |  |  |  |
| N#Cc1cnn2c(NCc3ccc(-c4ccccn4)cc3)nc(N[C@H]3CC[C@H](N)CC3)nc12 [Compound 2478] |  |  |  |  |  |  |  |  |  | 17.6 | 6.88 | 1.34 | 1.72 | 1.64 | 1.18 |
| CNCCNc1nc(NCc2ccc(-c3ccccn3)cc2)n2ncc(Br)c2n1 [Compound 2586] | 0.45 | 2.44 | 33.9 | 6.59 | 3.14 | 2.47 | 1.73 | 1.44 | 1.13 |  |  |  |  |  |  |
| Brc1cnn2c(NCc3ccc(-c4ccccn4)cc3)nc(N[C@H]3CCNC3)nc12 [Compound 2657] |  |  |  |  |  |  |  |  |  | 0.13 | 0.43 | 0.77 | 1.71 | 0.56 |  |
| Brc1cnn2c(NCc3ccc(-c4ccccn4)cc3)nc(N[C@@H]3CCCNC3)nc12 [Compound 2660, 8-bromo-N2-[(3R)-piperidin-3-yl]-N4-{[4-(pyridin-2-yl)phenyl]methyl}pyrazolo[1,5-a][1 ,3,5]triazine-2,4-diamine] |  |  |  |  |  |  |  |  |  | 0.11 | 0.49 | 0.68 | 1.25 | 0.43 |  |
| N[C@H]1CC[C@H](Nc2nc(NCc3ccc(-c4ccccn4)cc3)n3ncc(Cl)c3n2)CC1 [Compound 2629] | 0.36 | 1.17 | 3.91 | 0.27 | 0.94 | 0.77 | 1.75 | 0.66 | 0.11 |  |  |  |  |  |  |
| Brc1cnn2c(NCc3ccc(-c4ccccn4)cc3)nc(N[C@@H]3CCNC3)nc12 [Compound 2656] |  |  |  | 0.17 | 1.42 | 1.13 | 2.52 | 0.65 |  |  |  |  |  |  |  |
| Brc1cnn2c(NCc3ccc(-c4ccccn4)cc3)nc(NC3CCCNC3)nc12 (racemic) [Compound 2606] | 0.13 | 1.16 | 6.88 | 1.23 | 0.77 | 0.64 | 0.92 | 0.46 | 0.88 |  |  |  |  |  |  |
